Source: the supplement of paper PMC10307832

Legend:
Test in all cases: relative viability (nuclei count vs DMSO), 5 days (fraction); higher = more cells survive
[1] = test system: COR-L23
Summary of the method: (§1)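 One day after seeding in 1536-well plates, lung cancer cell lines were dosed by pin tool. Dosing was either single-drug or a fixed anchor-drug dose plus five library-drug doses (not always all listed) in √10 steps. After 5 days, nuclei were stained in one fix-and-stain step and counted on 4× images, and relative viability is the nuclei count of treated wells over that of vehicle wells, given as the median of duplicate plates.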

[2] = test system: NCI-H650
Summary of the method: as §1

[3] = test system: EMC-BAC-2
Summary of the method: as §1

[4] = test system: NCI-H1793
Summary of the method: as §1

[5] = test system: HCC-366
Summary of the method: as §1

[6] = test system: NCI-H2347
Summary of the method: as §1

[7] = test system: NCI-H2009
Summary of the method: as §1

[8] = test system: NCI-H1395
Summary of the method: as §1

[9] = test system: NCI-H1755
Summary of the method: as §1

[10] = test system: NCI-H1437
Summary of the method: as §1

[11] = test system: NCI-H23
Summary of the method: as §1

[12] = test system: SK-MES-1
Summary of the method: as §1

[13] = test system: NCI-H2342
Summary of the method: as §1

[14] = test system: NCI-H358
Summary of the method: as §1

[15] = test system: LC-2-ad
Summary of the method: as §1

[16] = test system: 201T
Summary of the method: as §1

[17] = test system: COR-L 105
Summary of the method: as §1

[18] = test system: NCI-H2023
Summary of the method: as §1

[19] = test system: NCI-H1915
Summary of the method: as §1

[20] = test system: HCC-15
Summary of the method: as §1

[21] = test system: PC-14
Summary of the method: as §1

Q: How did the relative viability ([1]; first compound 0.002 µM) turn out when CCNC(=O)c1noc(-c2cc(C(C)C)c(O)cc2O)c1-c1ccc(CN2CCOCC2)cc1 [Luminespib] + O=C(CCCCCCC(=O)Nc1ccccc1)NO [Vorinostat] (partner 1 µM) was run?
A: The relative viability was 0.469.

Q: What about the relative viability ([1]; first compound 0.006325 µM) of the same compound?
A: Its relative viability is 0.364.

Q: And the relative viability ([1]; first compound 0.02 µM)?
A: Its relative viability is 0.396.

Q: What about the relative viability ([1]; first compound 0.06325 µM) of the same compound?
A: The relative viability was 0.0788.

Q: What about the relative viability ([1]; first compound 0.2 µM) of the same compound?
A: The relative viability was 0.0814.

Q: And the relative viability ([2]; first compound 0.002 µM)?
A: The relative viability was 0.429.

Q: And the relative viability ([2]; first compound 0.006325 µM)?
A: The relative viability was 0.392.

Q: And the relative viability ([2]; first compound 0.02 µM)?
A: The relative viability was 0.298.

Q: And the relative viability ([2]; first compound 0.06325 µM)?
A: The relative viability was 0.158.

Q: And the relative viability ([2]; first compound 0.2 µM)?
A: The relative viability was 0.103.

Q: And the relative viability ([3]; first compound 0.002 µM)?
A: The relative viability was 0.461.

Q: And the relative viability ([3]; first compound 0.02 µM)?
A: Its relative viability is 0.263.

Q: And the relative viability ([3]; first compound 0.06325 µM)?
A: The relative viability was 0.148.

Q: What about the relative viability ([3]; first compound 0.2 µM) of the same compound?
A: Its relative viability is 0.178.

Q: And the relative viability ([4]; first compound 0.002 µM)?
A: Its relative viability is 0.631.

Q: And the relative viability ([4]; first compound 0.006325 µM)?
A: The relative viability was 0.556.

Q: And the relative viability ([4]; first compound 0.02 µM)?
A: Its relative viability is 0.271.

Q: And the relative viability ([4]; first compound 0.06325 µM)?
A: The relative viability was 0.107.

Q: What about the relative viability ([4]; first compound 0.2 µM) of the same compound?
A: The relative viability was 0.122.

Q: What about the relative viability ([5]; first compound 0.002 µM) of the same compound?
A: The relative viability was 0.38.

Q: What about the relative viability ([5]; first compound 0.006325 µM) of the same compound?
A: The relative viability was 0.35.

Q: And the relative viability ([5]; first compound 0.02 µM)?
A: The relative viability was 0.18.

Q: And the relative viability ([5]; first compound 0.06325 µM)?
A: Its relative viability is 0.0252.

Q: What about the relative viability ([5]; first compound 0.2 µM) of the same compound?
A: Its relative viability is 0.0243.

Q: And the relative viability ([6]; first compound 0.002 µM)?
A: The relative viability was 0.54.

Q: And the relative viability ([6]; first compound 0.006325 µM)?
A: The relative viability was 0.413.

Q: And the relative viability ([6]; first compound 0.02 µM)?
A: Its relative viability is 0.589.

Q: What about the relative viability ([6]; first compound 0.06325 µM) of the same compound?
A: The relative viability was 0.38.

Q: And the relative viability ([6]; first compound 0.2 µM)?
A: Its relative viability is 0.263.

Q: What about the relative viability ([7]; first compound 0.002 µM) of the same compound?
A: The relative viability was 0.765.

Q: What about the relative viability ([7]; first compound 0.006325 µM) of the same compound?
A: The relative viability was 0.594.

Q: And the relative viability ([7]; first compound 0.02 µM)?
A: Its relative viability is 0.705.

Q: And the relative viability ([7]; first compound 0.06325 µM)?
A: Its relative viability is 0.429.

Q: What about the relative viability ([7]; first compound 0.2 µM) of the same compound?
A: Its relative viability is 0.113.

Q: And the relative viability ([8]; first compound 0.002 µM)?
A: Its relative viability is 0.731.

Q: And the relative viability ([8]; first compound 0.006325 µM)?
A: The relative viability was 0.751.

Q: And the relative viability ([8]; first compound 0.02 µM)?
A: The relative viability was 0.508.

Q: And the relative viability ([8]; first compound 0.06325 µM)?
A: Its relative viability is 0.289.

Q: What about the relative viability ([8]; first compound 0.2 µM) of the same compound?
A: Its relative viability is 0.289.

Q: And the relative viability ([9]; first compound 0.002 µM)?
A: Its relative viability is 0.751.

Q: What about the relative viability ([9]; first compound 0.006325 µM) of the same compound?
A: The relative viability was 0.774.

Q: And the relative viability ([9]; first compound 0.02 µM)?
A: Its relative viability is 0.835.

Q: What about the relative viability ([9]; first compound 0.06325 µM) of the same compound?
A: The relative viability was 0.57.

Q: And the relative viability ([9]; first compound 0.2 µM)?
A: Its relative viability is 0.319.

Q: What about the relative viability ([10]; first compound 0.002 µM) of the same compound?
A: The relative viability was 0.92.

Q: And the relative viability ([10]; first compound 0.006325 µM)?
A: Its relative viability is 0.828.

Q: What about the relative viability ([10]; first compound 0.02 µM) of the same compound?
A: The relative viability was 0.82.

Q: And the relative viability ([10]; first compound 0.06325 µM)?
A: Its relative viability is 0.601.

Q: And the relative viability ([10]; first compound 0.2 µM)?
A: Its relative viability is 0.218.

Q: What about the relative viability ([11]; first compound 0.002 µM) of the same compound?
A: Its relative viability is 0.632.

Q: And the relative viability ([11]; first compound 0.006325 µM)?
A: The relative viability was 0.481.

Q: What about the relative viability ([11]; first compound 0.02 µM) of the same compound?
A: Its relative viability is 0.315.

Q: And the relative viability ([11]; first compound 0.06325 µM)?
A: Its relative viability is 0.0969.

Q: And the relative viability ([11]; first compound 0.2 µM)?
A: The relative viability was 0.108.

Q: And the relative viability ([12]; first compound 0.002 µM)?
A: The relative viability was 1.14.

Q: What about the relative viability ([12]; first compound 0.006325 µM) of the same compound?
A: Its relative viability is 0.931.

Q: What about the relative viability ([12]; first compound 0.02 µM) of the same compound?
A: The relative viability was 1.04.

Q: What about the relative viability ([12]; first compound 0.06325 µM) of the same compound?
A: Its relative viability is 0.174.

Q: And the relative viability ([12]; first compound 0.2 µM)?
A: The relative viability was 0.153.

Q: What about the relative viability ([13]; first compound 0.002 µM) of the same compound?
A: The relative viability was 0.766.

Q: And the relative viability ([13]; first compound 0.006325 µM)?
A: Its relative viability is 0.809.

Q: What about the relative viability ([13]; first compound 0.02 µM) of the same compound?
A: Its relative viability is 0.467.

Q: And the relative viability ([13]; first compound 0.06325 µM)?
A: Its relative viability is 0.679.

Q: And the relative viability ([13]; first compound 0.2 µM)?
A: Its relative viability is 0.416.

Q: What about the relative viability ([14]; first compound 0.002 µM) of the same compound?
A: The relative viability was 0.662.

Q: What about the relative viability ([14]; first compound 0.006325 µM) of the same compound?
A: The relative viability was 0.66.

Q: What about the relative viability ([14]; first compound 0.02 µM) of the same compound?
A: Its relative viability is 0.669.

Q: What about the relative viability ([14]; first compound 0.06325 µM) of the same compound?
A: Its relative viability is 0.0646.

Q: And the relative viability ([14]; first compound 0.2 µM)?
A: The relative viability was 0.0598.

Q: What about the relative viability ([15]; first compound 0.002 µM) of the same compound?
A: Its relative viability is 0.647.

Q: What about the relative viability ([15]; first compound 0.006325 µM) of the same compound?
A: The relative viability was 0.727.

Q: What about the relative viability ([15]; first compound 0.02 µM) of the same compound?
A: Its relative viability is 0.554.

Q: And the relative viability ([15]; first compound 0.06325 µM)?
A: The relative viability was 0.465.

Q: What about the relative viability ([15]; first compound 0.2 µM) of the same compound?
A: Its relative viability is 0.179.

Q: What about the relative viability ([16]; first compound 0.002 µM) of the same compound?
A: Its relative viability is 0.959.

Q: And the relative viability ([16]; first compound 0.006325 µM)?
A: The relative viability was 0.872.

Q: And the relative viability ([16]; first compound 0.02 µM)?
A: The relative viability was 0.768.

Q: And the relative viability ([16]; first compound 0.06325 µM)?
A: Its relative viability is 0.913.

Q: What about the relative viability ([16]; first compound 0.2 µM) of the same compound?
A: Its relative viability is 0.324.

Q: And the relative viability ([17]; first compound 0.002 µM)?
A: The relative viability was 0.917.

Q: What about the relative viability ([17]; first compound 0.006325 µM) of the same compound?
A: The relative viability was 0.84.

Q: What about the relative viability ([17]; first compound 0.02 µM) of the same compound?
A: Its relative viability is 0.959.

Q: What about the relative viability ([17]; first compound 0.06325 µM) of the same compound?
A: The relative viability was 0.43.

Q: And the relative viability ([17]; first compound 0.2 µM)?
A: The relative viability was 0.278.

Q: And the relative viability ([18]; first compound 0.002 µM)?
A: The relative viability was 0.7.

Q: And the relative viability ([18]; first compound 0.006325 µM)?
A: Its relative viability is 0.527.

Q: What about the relative viability ([18]; first compound 0.02 µM) of the same compound?
A: The relative viability was 0.236.

Q: What about the relative viability ([18]; first compound 0.06325 µM) of the same compound?
A: The relative viability was 0.0453.

Q: And the relative viability ([18]; first compound 0.2 µM)?
A: Its relative viability is 0.0503.

Q: And the relative viability ([19]; first compound 0.002 µM)?
A: The relative viability was 0.556.

Q: And the relative viability ([19]; first compound 0.006325 µM)?
A: The relative viability was 0.506.

Q: What about the relative viability ([19]; first compound 0.02 µM) of the same compound?
A: The relative viability was 0.415.

Q: And the relative viability ([19]; first compound 0.06325 µM)?
A: The relative viability was 0.477.

Q: What about the relative viability ([19]; first compound 0.2 µM) of the same compound?
A: Its relative viability is 0.0602.

Q: And the relative viability ([20]; first compound 0.002 µM)?
A: Its relative viability is 0.792.

Q: And the relative viability ([20]; first compound 0.006325 µM)?
A: Its relative viability is 0.805.

Q: And the relative viability ([20]; first compound 0.02 µM)?
A: Its relative viability is 0.942.

Q: What about the relative viability ([20]; first compound 0.06325 µM) of the same compound?
A: The relative viability was 0.583.

Q: And the relative viability ([20]; first compound 0.2 µM)?
A: The relative viability was 0.173.

Q: What about the relative viability ([21]; first compound 0.002 µM) of the same compound?
A: Its relative viability is 0.787.

Q: What about the relative viability ([21]; first compound 0.006325 µM) of the same compound?
A: The relative viability was 0.639.

Q: And the relative viability ([21]; first compound 0.02 µM)?
A: Its relative viability is 0.121.

Q: What about the relative viability ([21]; first compound 0.06325 µM) of the same compound?
A: Its relative viability is 0.0465.

Q: And the relative viability ([21]; first compound 0.2 µM)?
A: Its relative viability is 0.0692.
